In patent US11261152B2, “Inhibitors of the N-terminal domain of the androgen receptor” (The Regents of the University of California, priority 2017, dated 2022):
Entries after “also recorded” stand apart in the source; their conditions may differ. Where a name gives a salt, the structure may show the parent alone.

Assays:
[1] = system: AP1 mediated reporter activity; experiment: AP1 reporter assay; type: cell-based
[2] = system: AR transcriptional activity (MMTV reporter); experiment: MMTV reporter assay; type: cell-based
AR = AR (Homo sapiens, UniProt P10275); experiment: AR inhibition (reporter activity of full-length AR and AR splice variants)
c-Jun TAD = experiment: JUN-TAD fused to GAL4 DNA-binding domain reporter assay; type: cell-based; settings: Table 3 grade HIGH/MED/LOW, grades not defined
From the text: The inhibitory activity of JN018 was further evaluated in experiments in which the AR transactivation domain (TAD) or the c-Jun or CREB TAD was fused to the heterologous GAL4 DNA-binding domain and thereby drive reporter gene expression governed by the GAL4 response element (FIG. 1).

[3] = system: glucocorticoid response element (GRE) / glucocorticoid receptor; experiment: GRE reporter assay; type: cell-based
Method: FIG. 11B. Effects of JN series compounds in reporter assays for glucocorticoid response element. Experiments were performed in triplicate and results are means+/−s.d.

[4] = molecular target: T1, full length AR and AR splice variants (AR-V7, AR Δ567) (Homo sapiens, UniProt P10275); experiment: AR degradation, protein stability experiments with cycloheximide (Western blot); type: cell-based
T1 construct: endogenous in cells; host or cells: LNCaP-AR (engineered to overexpress full length AR), 22Rv1 (endogenous full length AR and AR-V7), PC3 stably expressing AR Δ567
T1 sequence (P10275 1-920): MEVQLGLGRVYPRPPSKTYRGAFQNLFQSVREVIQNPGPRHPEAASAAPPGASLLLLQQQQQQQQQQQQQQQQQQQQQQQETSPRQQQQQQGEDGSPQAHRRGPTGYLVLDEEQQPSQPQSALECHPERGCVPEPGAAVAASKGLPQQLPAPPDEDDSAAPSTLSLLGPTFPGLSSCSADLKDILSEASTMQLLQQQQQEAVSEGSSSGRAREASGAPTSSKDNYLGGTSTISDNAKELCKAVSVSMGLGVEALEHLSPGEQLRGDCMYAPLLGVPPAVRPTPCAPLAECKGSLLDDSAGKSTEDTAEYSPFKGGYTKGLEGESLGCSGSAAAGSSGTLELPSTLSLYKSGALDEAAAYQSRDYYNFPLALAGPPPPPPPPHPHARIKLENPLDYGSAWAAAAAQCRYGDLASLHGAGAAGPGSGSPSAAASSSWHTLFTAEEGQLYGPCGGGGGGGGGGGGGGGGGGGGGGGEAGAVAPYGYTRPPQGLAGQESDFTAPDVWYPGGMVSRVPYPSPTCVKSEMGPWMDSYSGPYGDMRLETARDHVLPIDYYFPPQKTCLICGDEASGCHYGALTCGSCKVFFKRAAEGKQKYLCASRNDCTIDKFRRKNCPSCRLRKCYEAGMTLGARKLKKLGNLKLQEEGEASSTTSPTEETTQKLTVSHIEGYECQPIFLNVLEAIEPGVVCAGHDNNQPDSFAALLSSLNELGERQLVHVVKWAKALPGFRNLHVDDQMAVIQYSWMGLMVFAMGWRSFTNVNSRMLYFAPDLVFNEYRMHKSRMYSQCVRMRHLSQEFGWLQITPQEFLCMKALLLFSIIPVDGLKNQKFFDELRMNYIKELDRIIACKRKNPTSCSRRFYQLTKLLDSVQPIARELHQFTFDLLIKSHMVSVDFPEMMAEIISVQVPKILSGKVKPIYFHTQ
T1 sequence (P10275 1-644 isoform P10275-3): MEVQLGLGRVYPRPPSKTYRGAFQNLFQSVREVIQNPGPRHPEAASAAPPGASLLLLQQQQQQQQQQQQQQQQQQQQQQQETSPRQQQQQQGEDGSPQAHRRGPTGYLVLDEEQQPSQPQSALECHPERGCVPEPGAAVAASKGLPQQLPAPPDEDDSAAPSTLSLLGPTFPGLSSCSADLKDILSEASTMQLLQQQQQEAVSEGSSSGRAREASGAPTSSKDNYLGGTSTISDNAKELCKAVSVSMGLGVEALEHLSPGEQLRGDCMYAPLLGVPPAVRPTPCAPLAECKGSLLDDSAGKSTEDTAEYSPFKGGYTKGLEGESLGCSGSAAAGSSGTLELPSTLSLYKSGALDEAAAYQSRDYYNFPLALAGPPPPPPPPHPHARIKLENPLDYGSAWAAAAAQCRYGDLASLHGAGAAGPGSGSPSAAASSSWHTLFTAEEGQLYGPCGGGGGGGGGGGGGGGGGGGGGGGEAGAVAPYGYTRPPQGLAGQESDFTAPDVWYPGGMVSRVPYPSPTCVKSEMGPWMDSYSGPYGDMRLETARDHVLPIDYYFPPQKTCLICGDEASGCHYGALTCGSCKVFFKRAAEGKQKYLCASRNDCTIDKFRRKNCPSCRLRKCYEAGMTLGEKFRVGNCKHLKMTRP
T1 sequence (P10275 with tags, fused parts or gaps limits assumed): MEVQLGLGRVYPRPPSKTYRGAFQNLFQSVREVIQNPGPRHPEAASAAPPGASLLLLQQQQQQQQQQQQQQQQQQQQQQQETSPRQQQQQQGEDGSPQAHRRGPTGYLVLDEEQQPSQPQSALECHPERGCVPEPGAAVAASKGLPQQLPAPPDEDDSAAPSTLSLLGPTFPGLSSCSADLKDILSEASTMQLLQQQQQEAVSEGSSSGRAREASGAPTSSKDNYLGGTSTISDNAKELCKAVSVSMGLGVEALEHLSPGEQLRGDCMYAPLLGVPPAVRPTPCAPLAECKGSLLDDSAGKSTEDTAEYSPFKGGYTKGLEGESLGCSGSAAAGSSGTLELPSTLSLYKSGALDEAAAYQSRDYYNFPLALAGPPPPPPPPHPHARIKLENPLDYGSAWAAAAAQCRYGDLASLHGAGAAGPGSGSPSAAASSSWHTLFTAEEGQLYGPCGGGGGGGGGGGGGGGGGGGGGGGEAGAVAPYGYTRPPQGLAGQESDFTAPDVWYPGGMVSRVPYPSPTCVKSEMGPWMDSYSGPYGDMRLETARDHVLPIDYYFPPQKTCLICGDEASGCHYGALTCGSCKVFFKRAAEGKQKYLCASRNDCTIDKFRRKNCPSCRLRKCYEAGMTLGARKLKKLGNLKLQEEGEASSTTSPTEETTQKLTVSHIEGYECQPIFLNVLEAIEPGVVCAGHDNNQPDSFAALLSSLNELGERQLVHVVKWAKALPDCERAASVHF
Method: A) LNCaP-AR cells were exposed to the indicated compounds or vehicle (DMSO) in the presence of cycloheximide for the indicated times. Western blots were performed for the indicated proteins. B) Same as A but in 22Rv1 cells.

[5] = Table 3 grade HIGH/MED/LOW, grades not defined

Structure (SMILES): C=C(CN(C)Cc1ccccc1)C(=O)/C(=C/c1ccc(Cl)cc1)c1ccccc1 [JN018, (E)-4-((Benzyl(methyl)amino)methyl)-1-(4-chlorophenyl)-2-phenylpenta-1,4-dien-3-one hydrochloride]
- AP1 [1, 5]: LOW
- AP1 mediated reporter activity ([1]; result in words): does not affect
- MMTV [2, 5]: HIGH
- reporter activity driven by the MMTV promoter ([2]; result in words): inhibits reporter activity
- reporter activity of endogenously and ectopically expressed full-length AR and AR-V7 (AR; LNCaP, LNCaP-AR, 22Rv1, PC3 transfected with ARΔ567): inhibits the reporter activity
- IC50 (AR; read-out: IC50 for AR inhibition): 110 nM
- JUN-TAD (c-Jun TAD): LOW
- GRE [3, 5]: LOW
- GR / GRE mediated reporter (transcriptional) activity ([3]; result in words, hydrochloride): does not inhibit; also recorded: does not affect
- IC50 for AR Degradation [4]: ~2.0 µM
- degradation of AR splice variant AR Δ567 ([4]; stably introduced into PC3 cells): enhanced degradation
